Data on 36 compounds can be found in US12485169B2, “Compounds” (GREY WOLF THERAPEUTICS LIMITED, priority 2018, dated 2025).

The target of the test is T1, Purified ERAP1 (37-941)-10His (ERAP1) (Homo sapiens, UniProt Q9NZ08).
T1 construct: Purified ERAP1 (37-941)-10His (ERAP1)
T1 sequence (Q9NZ08 37-941): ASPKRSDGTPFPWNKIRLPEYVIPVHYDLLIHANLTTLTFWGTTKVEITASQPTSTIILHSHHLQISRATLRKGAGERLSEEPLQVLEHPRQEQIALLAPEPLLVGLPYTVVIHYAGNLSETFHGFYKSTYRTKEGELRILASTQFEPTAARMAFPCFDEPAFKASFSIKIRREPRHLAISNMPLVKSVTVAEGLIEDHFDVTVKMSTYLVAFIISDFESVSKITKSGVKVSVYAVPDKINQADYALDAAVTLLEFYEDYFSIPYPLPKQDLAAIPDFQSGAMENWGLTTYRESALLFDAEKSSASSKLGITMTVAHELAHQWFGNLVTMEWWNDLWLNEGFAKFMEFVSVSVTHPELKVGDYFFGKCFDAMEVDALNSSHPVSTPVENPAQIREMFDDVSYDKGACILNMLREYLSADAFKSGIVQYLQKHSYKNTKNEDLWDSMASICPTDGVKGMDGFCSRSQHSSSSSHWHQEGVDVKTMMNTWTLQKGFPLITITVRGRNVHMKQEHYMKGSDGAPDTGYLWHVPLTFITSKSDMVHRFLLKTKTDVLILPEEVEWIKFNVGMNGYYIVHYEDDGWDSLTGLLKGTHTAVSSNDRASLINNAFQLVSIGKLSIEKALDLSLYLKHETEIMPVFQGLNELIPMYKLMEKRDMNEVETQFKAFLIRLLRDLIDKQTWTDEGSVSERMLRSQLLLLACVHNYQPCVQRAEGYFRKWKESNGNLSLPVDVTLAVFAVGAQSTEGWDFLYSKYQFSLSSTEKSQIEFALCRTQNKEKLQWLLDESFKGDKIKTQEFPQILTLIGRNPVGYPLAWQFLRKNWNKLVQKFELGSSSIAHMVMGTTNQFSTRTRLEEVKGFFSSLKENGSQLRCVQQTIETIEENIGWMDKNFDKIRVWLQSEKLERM
Briefly: ERAP1 mediated hydrolysis of an amide substrate (10-mer inhibition assay), biochemical system. To be noted: 10-mer substrate, 23° C., 1 h, excitation 279 nm / emission 355 nm; read-out: IC50 vs Decapeptide WRVYEKC(Dnp)ALK-acid (where Dnp is Dinitrophenyl maleimide) (10-mer).
A word on the IC50: it is the concentration needed to halve the response being measured. For `CCOc1ccc(C(=O)O)cc1S(=O)(=O)Nc1cc(C(F)(F)F)ccc1N1CCCCC1` [Example 201, 4-ethoxy-3-(N-(2-(piperidin-1-yl)-5-(trifluoromethyl)phenyl)sulfamoyl)benzoic acid], the IC50 was below 500 nM.

As for `COc1ccc(C(=O)O)cc1S(=O)(=O)Nc1cc(Cl)c(Cl)cc1N1CCCCC1` [Example 202, 3-(N-(4,5-dichloro-2-(piperidin-1-yl)phenyl)sulfamoyl)-4-methoxybenzoic acid], the IC50 is below 500 nM.

Turning to `CCc1ccc(C(=O)O)cc1S(=O)(=O)Nc1cc(C(F)(F)F)ccc1N1CCC(F)(F)CC1` [Example 203, 3-(N-(2-(4,4-difluoropiperidin-1-yl)-5-(trifluoromethyl)phenyl)sulfamoyl)-4-ethylbenzoic acid], the IC50 is below 500 nM. On to `CCc1ccc(C(=O)O)cc1S(=O)(=O)Nc1cc(C(F)(F)F)ccc1N1CCCC(F)(F)C1` [Example 204, 3-(N-(2-(3,3-difluoropiperidin-1-yl)-5-(trifluoromethyl)phenyl)sulfamoyl)-4-ethylbenzoic acid], for which the concentration for half-maximal inhibition (IC50) is below 500 nM. Turning to `CCc1ccc(C(=O)O)cc1S(=O)(=O)Nc1cc(C(F)(F)F)ccc1N1CCC(F)CC1` [Example 205, 4-ethyl-3-(N-(2-(4-fluoropiperidin-1-yl)-5-(trifluoromethyl)phenyl)sulfamoyl)benzoic acid], the IC50 was below 500 nM. Regarding `COc1ccc(C(=O)O)cc1S(=O)(=O)Nc1cc(C(F)(F)F)ccc1N1CCC(F)CC1` [Example 206, 3-(N-(2-(4-fluoropiperidin-1-yl)-5-(trifluoromethyl)phenyl)sulfamoyl)-4-methoxybenzoic acid], the IC50 was below 500 nM. Take `COc1ccc(C(=O)O)cc1S(=O)(=O)Nc1cc(S(C)(=O)=O)ccc1N1CCCCC1` [Example 207, 4-methoxy-3-(N-(5-(methylsulfonyl)-2-(piperidin-1-yl)phenyl)sulfamoyl)benzoic acid]: the half-inhibitory concentration (IC50) was below 500 nM. As to `COc1ccc(C(=O)O)cc1S(=O)(=O)Nc1cc(C(F)(F)F)ccc1N1CCC[C@@H](F)C1` [Example 208, I-3-(N-(2-(3-fluoropiperidin-1-yl)-5-(trifluoromethyl)phenyl)sulfamoyl)-4-methoxybenzoic acid], the IC50 was below 500 nM.

Consider `COc1ccc(C(=O)O)cc1S(=O)(=O)Nc1cc(C(F)(F)F)ccc1N1CCC[C@H](F)C1` [Example 209, (S)-3-(N-(2-(3-fluoropiperidin-1-yl)-5-(trifluoromethyl)phenyl)sulfamoyl)-4-methoxybenzoic acid], for which the concentration for half-maximal inhibition (IC50) was below 500 nM.

Regarding `CCc1ccc(C(=O)O)cc1S(=O)(=O)Nc1cc(C(F)(F)F)ccc1N1CCC[C@H](F)C1` [Example 210, (S)-4-ethyl-3-(N-(2-(3-fluoropiperidin-1-yl)-5-(trifluoromethyl)phenyl)sulfamoyl)benzoic acid], the IC50 was below 500 nM. Take `CCc1ccc(C(=O)O)cc1S(=O)(=O)Nc1cc(C(F)(F)F)ccc1N1CCC[C@@H](F)C1` [Example 211, I-4-ethyl-3-(N-(2-(3-fluoropiperidin-1-yl)-5-(trifluoromethyl)phenyl)sulfamoyl)benzoic acid]: the IC50 is below 500 nM. With `COc1ccc(C(=O)O)cc1S(=O)(=O)Nc1cc(C(F)F)ccc1N1CCCCC1` [Example 212, 3-(N-(5-(difluoromethyl)-2-(piperidin-1-yl)phenyl)sulfamoyl)-4-methoxybenzoic acid] the figure was below 500 nM.

In the case of `CCc1ccc(C(=O)O)cc1S(=O)(=O)Nc1cc(C(F)F)ccc1N1CCCCC1` [Example 213, 3-(N-(5-(difluoromethyl)-2-(piperidin-1-yl)phenyl)sulfamoyl)-4-ethylbenzoic acid], the 50% inhibitory concentration (IC50) is below 500 nM. As for `COc1ccc(C(=O)O)cc1S(=O)(=O)Nc1cc(-n2cnnn2)ccc1N1CCCCC1` [Example 214, 4-methoxy-3-(N-(2-(piperidin-1-yl)-5-(1H-tetrazol-1-yl)phenyl)sulfamoyl)benzoic acid], the IC50 is below 500 nM. To `CCc1ccc(C(=O)O)cc1S(=O)(=O)Nc1cc(C#N)ccc1N1CCCCC1` [Example 215, 3-(N-(5-cyano-2-(piperidin-1-yl)phenyl)sulfamoyl)-4-ethylbenzoic acid] belongs below 500 nM.

Regarding `CCc1ccc(C(=O)O)cc1S(=O)(=O)Nc1cc(Cl)ccc1N1CCCCC1` [Example 216, 3-(N-(5-chloro-2-(piperidin-1-yl)phenyl)sulfamoyl)-4-ethylbenzoic acid], the IC50 is below 500 nM. With `CCc1ccc(C(=O)O)cc1S(=O)(=O)Nc1cc(Cl)ccc1N1CCC(F)(F)CC1` [Example 217, 3-(N-(5-chloro-2-(4,4-difluoropiperidin-1-yl)phenyl)sulfamoyl)-4-ethylbenzoic acid] the figure was below 500 nM; with `COc1ccc(C(=O)O)cc1S(=O)(=O)Nc1cc(Cl)ccc1N1CCC(F)(F)CC1` [Example 218, 3-(N-(5-chloro-2-(4,4-difluoropiperidin-1-yl)phenyl)sulfamoyl)-4-methoxybenzoic acid], below 500 nM.

Turning to `COc1ccc(C(=O)O)cc1S(=O)(=O)Nc1cc(Cl)ccc1N1CCCC(F)(F)C1` [Example 219, 3-(N-(5-chloro-2-(3,3-difluoropiperidin-1-yl)phenyl)sulfamoyl)-4-methoxybenzoic acid], the IC50 was below 500 nM. For `CCc1ccc(C(=O)O)cc1S(=O)(=O)Nc1cc(Cl)ccc1N1CCCC(F)(F)C1` [Example 220, 3-(N-(5-chloro-2-(3,3-difluoropiperidin-1-yl)phenyl)sulfamoyl)-4-ethylbenzoic acid], the 50% inhibitory concentration (IC50) is below 500 nM.

For `COc1ccc(C(=O)O)cc1S(=O)(=O)Nc1cc(C#N)ccc1N1CCC(F)(F)CC1` [Example 221, 3-(N-(5-cyano-2-(4,4-difluoropiperidin-1-yl)phenyl)sulfamoyl)-4-methoxybenzoic acid], the IC50 is below 500 nM.

As to `CCc1ccc(C(=O)O)cc1S(=O)(=O)Nc1cc(C#N)ccc1N1CCC(F)(F)CC1` [Example 222, 3-(N-(5-cyano-2-(4,4-difluoropiperidin-1-yl)phenyl)sulfamoyl)-4-ethylbenzoic acid], the IC50 is below 500 nM.

Turning to `COc1ccc(C(=O)O)cc1S(=O)(=O)Nc1cc(C#N)ccc1N1CCCC(O)C1` (stereo not drawn) [Example 223, 3-(N-(5-cyano-2-(3-hydroxypiperidin-1-yl)phenyl)sulfamoyl)-4-methoxybenzoic acid], the IC50 was below 500 nM. For the compound `CCc1ccc(C(=O)O)cc1S(=O)(=O)Nc1cc(C#N)ccc1N1CCCC(O)C1` (stereo not drawn) [Example 224, 3-(N-(5-cyano-2-(3-hydroxypiperidin-1-yl)phenyl)sulfamoyl)-4-ethylbenzoic acid], the IC50 was below 500 nM.

Consider `CS(=O)(=O)c1ccc(C(=O)O)cc1S(=O)(=O)Nc1cc(C(F)(F)F)ccc1N1CCCCC1` [Example 225, 4-(methylsulfonyl)-3-(N-(2-(piperidin-1-yl)-5-(trifluoromethyl)phenyl)sulfamoyl)benzoic acid], for which the IC50 is above 5000 nM. Regarding `O=C(O)c1ccc(OCC(F)(F)F)c(S(=O)(=O)Nc2cc(C(F)(F)F)ccc2N2CCCCC2)c1` [Example 227, 3-(N-(2-(piperidin-1-yl)-5-(trifluoromethyl)phenyl)sulfamoyl)-4-(2,2,2-trifluoroethoxy)benzoic acid], the concentration for half-maximal inhibition (IC50) is below 5000 nM. As for `CC(C)(O)c1ccc(C(=O)O)cc1S(=O)(=O)Nc1cc(C(F)(F)F)ccc1N1CCCCC1` [Example 228, 4-(2-hydroxypropan-2-yl)-3-(N-(2-(piperidin-1-yl)-5-(trifluoromethyl)phenyl)sulfamoyl)benzoic acid], the IC50 was below 500 nM. With `O=C(O)c1ccc(CO)c(S(=O)(=O)Nc2cc(C(F)(F)F)ccc2N2CCCCC2)c1` [Example 229, 4-(hydroxymethyl)-3-(N-(2-(piperidin-1-yl)-5-(trifluoromethyl)phenyl)sulfamoyl)benzoic acid], the IC50 is below 500 nM. `CCc1ccc(C(=O)O)cc1S(=O)(=O)Nc1ccc(C(F)(F)F)cc1N1CCCCC1` [Example 230, 4-ethyl-3-(N-(2-(piperidin-1-yl)-4-(trifluoromethyl)phenyl)sulfamoyl)benzoic acid]: the IC50 was below 500 nM.

In the case of `CSc1ccc(C(=O)O)cc1S(=O)(=O)Nc1cc(C(F)(F)F)ccc1N1CCCCC1` [Example 232, 4-(methylthio)-3-(N-(2-(piperidin-1-yl)-5-(trifluoromethyl)phenyl)sulfamoyl)benzoic acid], the IC50 is below 500 nM. As to `COc1ccc(C(=O)O)cc1S(=O)(=O)Nc1cc(C#N)ccc1N1CCCC(F)(F)C1` [Example 233, 3-(N-(5-cyano-2-(3,3-difluoropiperidin-1-yl)phenyl)sulfamoyl)-4-methoxybenzoic acid], the IC50 is below 500 nM. To `CCc1ccc(C(=O)O)cc1S(=O)(=O)Nc1cc(C#N)ccc1N1CCCC(F)(F)C1` [Example 234, 3-(N-(5-cyano-2-(3,3-difluoropiperidin-1-yl)phenyl)sulfamoyl)-4-ethylbenzoic acid] belongs below 500 nM; to `COc1ccc(C(=O)O)cc1S(=O)(=O)Nc1cc(C(F)(F)F)ccc1N1CCCC[C@H]1C` [Example 235, I-4-methoxy-3-(N-(2-(2-methylpiperidin-1-yl)-5-(trifluoromethyl)phenyl)sulfamoyl)benzoic acid], below 500 nM. To `CCc1ccc(C(=O)O)cc1S(=O)(=O)Nc1cc(C(F)(F)F)ccc1N1CCCC[C@H]1C` [Example 236, I-4-ethyl-3-(N-(2-(2-methylpiperidin-1-yl)-5-(trifluoromethyl)phenyl)sulfamoyl)benzoic acid] belongs below 500 nM; to `COc1ccc(C(=O)O)cc1S(=O)(=O)Nc1cc(C(F)(F)F)ccc1N1CCC(C#N)CC1` [Example 237, 3-(N-(2-(4-cyanopiperidin-1-yl)-5-(trifluoromethyl)phenyl)sulfamoyl)-4-methoxybenzoic acid], below 500 nM; to `CCc1ccc(C(=O)O)cc1S(=O)(=O)Nc1cc(C(F)(F)F)ccc1N1CCC(C#N)CC1` [Example 238, 3-(N-(2-(4-cyanopiperidin-1-yl)-5-(trifluoromethyl)phenyl)sulfamoyl)-4-ethylbenzoic acid], below 500 nM.
